Experimental data from EP2792360A1, “(1aR,12bS)-8-cyclohexyl-11-fluoro-N-((1-methylcyclopropyl)sulfonyl)-1a-((3-methyl-3,8-diazabicyclo[3.2.1]oct-8-yl)carbonyl)-1,1a,2,2b-tetrahydrocyclopropa[d]indolo[2,1-a][2]benzazepine-5-carboxamide for use in treating HCV” (IP Gesellschaft für Management mbH, priority 2013, dated 2014).
“Also recorded” adds a separate entry of the source. Structures can show the parent of a compound that is named as a salt.

What was measured:
[1] = Salt selection screens of Formula V free base (organic solvents, aqueous, concentrated acids; XRPD); type: physicochemical; details: for XRPD post 1 day maturation / XRPD post 4 days maturation: HCl salt screen, HCl 1.1 equivalents
Method: Example 8: Salt Selection: Preparation of the hydrochloride salt was performed in the 20 solvents used for the solubility screen in order to select the optimal solvents for the salt screen. Formula V free base (ca. 10 mg) was suspended in the selected solvents (50 volumes; 500 µl) with stirring at 40°C. HCl (1.1 equivalents; […] in THF) was added, and the temperature was maintained for 30 minutes. […] The experiments were left cycling for further three days. […] Table 2. Results of HCl salt screen from 20 different solvents
Formula V free base (ca. 30 mg) was suspended in selected solvents (THF, nitromethane, acetonitrile and MEK; 50 volumes, 1.5 mL) at 50°C with stirring. The corresponding acid (1 equivalent) was added and the samples were stirred for 30 minutes, prior to ramping at 1 °C -min_1 to 25°C. The samples were placed in a shaker and subjected to heating/cooling cycles, between room temperature and 50°C, with four hours at each condition. Table 3. Input materials used for the salt screen
Further solvent (25 volumes) was added, and the suspensions were allowed to cycle for four more days. […] The samples were stored in a shaker and subjected to heating/cooling cycles, between room temperature and 50°C, with four hours at each condition for one week. […] Water (10% for MeCN, and 5% for THF, MEK and nitromethane, based on ca. 1.5 mL solvent) was added and the samples were cycled for a further 5 days. […] Table 4. XRPD results from the salt screen in acetonitrile.
An aqueous screen was performed. […] Table 11. Aqueous salt screen
The preparation of salts was conducted by dissolution in concentrated aqueous inorganic acids followed by precipitation with THF. Two procedures were performed, on 10 mg or 50 mg scale, investigating the effect of the order of addition of THF on the product produced.
Procedure A: Formula V free base (ca. 10 mg) was dissolved in the corresponding concentrated acid (50 µl) with stirring at room temperature and was added dropwise over THF (500 µl). Samples using HBr and HCl yielded solids and were shaken for 10 minutes and the solid was vacuum filtered, and dried under suction. H3PO4 yielded a solution that was subjected to heating/cooling cycles between room temperature and 50°C, four hours under each condition for 7 days. Procedure B: Formula V free base (ca. 50 mg) was dissolved in the corresponding concentrated acids (250 µl) with stirring at room temperature. THF (2.5 mL) was added dropwise to the solutions, and precipitation started. The samples were shaken for 30 minutes before being placed at 2-8°C for ca. 16 hours. HBr and HCl produced solids, which were vacuum filtered, washed with THF, dried under suction and under vacuum at 40°C for 16 hours. Table 13. Results from the salt screen from concentrated aqueous acids

[2] = Solid form stability of forms of compound of formula (IV) (Temperature / Humidity Controlled XRPD, storage, suspension); type: physicochemical
Method: The term"XRPD" denotes the analytical method of X-Ray Powder Diffraction. XRPD patterns were recorded at ambient conditions in transmission geometry with a STOE STADI P diffractometer (Cu K alpha radiation source, primary monochromator, position sensitive detector, angular range 3° to 42° 2Theta, approximately 60 minutes total measurement time). The repeatability of the angular values is in the range of 2Theta ±0.2°. The term "approximately" given in combination with an angular value denotes the repeatability which is in the range of 2Theta ±0.2°. The samples were prepared and analyzed without further processing (e.g. grinding or sieving) of the substance. The relative XRPD peak intensity is dependent upon many factors such as structure factor, temperature factor, crystallinity, polarization factor, multiplicity, and Lorentz factor. Relative intensities may vary considerably from one measurement to another due to preferred orientation effects. Humidity Controlled XRPD analyses were performed in reflection geometry with a Siemens D5000 Diffractometer (Cu radiation source, Ni K beta filter, Scintillation detector, angular range 3° to 42° 2Theta, approximately 180 minutes total measurement time per humidity level). The diffractometer is equipped with an MRI (Materials Research Instruments) humidity chamber. The humidity within the chamber is adjusted with an ANSYCO humidity controller (SYCOS H-HOT). For single crystal structure analysis a single crystal sample was mounted in a nylon loop on a goniometer and measured at ambient conditions. Alternatively, the crystal was cooled in a nitrogen stream during measurement. Data were collected on a GEMINI R Ultra diffractometer from Oxford Diffraction. Cu-radiation of 1.54 A wavelength was used for data collection. Data was processed with the Oxford Diffraction CRYSALIS software. The crystal structure was solved and refined with standard crystallographic software. In this case the program ShelXTL from Bruker AXS (Karlsruhe) was used. The abbreviation "FWHM" denotes the full width at half maximum, which is a width of a peak (e.g. appearing in a spectrum, particularly in an XRPD pattern) at its half height. The term "sharp Bragg diffraction peak" in connection with X-ray diffraction patterns denotes a peak which is observed if Bragg' s law of diffraction is fulfilled. Generally, the FWHM of a sharp Bragg diffraction peak is less than 0.5° 2-theta. The term "amorphous halo" in connection with X-ray diffraction patterns denotes an approximately bell- shaped diffraction maximum in the X-ray powder diffraction pattern of an amorphous material. The FWHM of an amorphous halo is on principle larger than the FWHM of the peak of crystalline material. The terms "FTIR" and "IR" denote the analytical method of infrared spectroscopy. The IR-spectra of the samples are recorded as film of a Nujol suspension consisting of approx. 5 mg of sample and approx. 5 mg of Nujol (mineral oil) between two sodium chloride plates (cross section 13 mm) in transmittance with a FTIR- spectrometer. The spectra were recorded in spectral range between 4000 cm"1 and 600 cm"1, resolution 2 cm"1, and 300 coadded scans on a Magna 860 (thermo/Nicolet) equipped with a DTGS detector. The term "Raman" denotes the analytical method of Raman spectroscopy. For recording Raman spectra, the samples were spread on a glass slide. Raman spectra were recorded in the range of 150-3800 cm"1 with an ARAMIS (HoribaJobinYvon) Raman microscope equipped with a Peltier cooled CCD detector, at excitation of 633 nm, a 1200 1/mm grating, a x50 objective and with 3 exposures of 3s, or 7s for weak Raman scatterers. The term "DSC" denotes the analytical method of Differential Scanning Calorimetry. DSC thermograms were recorded using a Mettler-Toledo™ differential scanning calorimeter DSC820, DSC821 or DSC1 with a FRS05 sensor. […]

[3] = salt screen from concentrated aqueous acids, Formula V free base, Procedure A
[4] = salt screen from concentrated aqueous acids, Formula V free base, Procedure B
[5] = solvent 1-4-Dioxane (entry -13)
[6] = solvent Acetonitrile (entry -04)
[7] = salts from concentrated acids, second Details column (presumably Procedure B), listed as HCl salt
[8] = HBr salt obtained in the salt screen, Acetonitrile
[9] = HBr salt obtained in the salt screen, THF
[10] = salts from concentrated acids, second Details column (presumably Procedure B), listed as HBr salt

O=P(O)(O)O [Compound H3PO4]
Maturation [1, 3]: Oil | Observations after adda of THF [1, 3]: Solution | Observations after adda of THF [1, 4]: Oil

Cc1onc(-c2ccc(F)cc2)c1COc1ccc(C(=O)N2CCS(=O)(=O)CC2)cn1 [Form A ({drug4a}), (1,1-dioxo-1lambda6-thiomorpholin-4-yl)-{6-[3-(4-fluoro-phenyl)-5-methyl-isoxazol-4-ylmethoxy]-pyridin-3-yl]-methanone]
thermodynamic stability of the solid form [2]: metastable polymorph | solid form changes at elevated temperature ([2]; Temperature Controlled XRPD): do not show solid form changes

Br [HBr]
Observations after adda of THF [1, 3]: While suspension | Observations after adda of THF [1, 4]: White suspension

Cl [HCl]
Observations after adda of THF [1, 3]: White suspension | Observations after adda of THF [1, 4]: White suspension

Nc1nc2cc(-c3ccc4ncc(C(=O)N5CCOCC5)n4c3)ccc2o1 [compound of Formula V, (6-(2-aminobenzo[d]oxazol-5-yl)imidazo[1,2-a]pyridin-3-yl)(morpholino)methanone]
XRPD post 1 day maturation [1, 5]: New peaks free base (loss of crystallinity) | XRPD post 4 days maturation [1, 5]: Amorphous | XRPD post 1 day maturation ([1]; solvent Acetone (entry -05)): New peaks + free base | XRPD post 4 days maturation ([1]; solvent Acetone (entry -05)): Free base | XRPD post 1 day maturation [1, 6]: New peaks + free base | XRPD post 4 days maturation [1, 6]: HCl Pattern 1 | XRPD post 1 day maturation ([1]; solvent BuOAc (entry -16)): New peaks + free base (loss of crystallinity) | XRPD post 4 days maturation ([1]; solvent BuOAc (entry -16)): New peaks + free base (loss of crystallinity) | XRPD post 1 day maturation ([1]; solvent DCM (entry -17)): New peaks + free base (loss of crystallinity) | XRPD post 4 days maturation ([1]; solvent DCM (entry -17)): New peaks + free base (loss of crystallinity) | XRPD post 1 day maturation ([1]; solvent DIPE (entry -10)): New peaks + free base | XRPD post 4 days maturation ([1]; solvent DIPE (entry -10)): New peaks + free base | XRPD post 1 day maturation ([1]; solvent EtOAc (entry -08)): New peaks + free base (loss of crystallinity) | XRPD post 4 days maturation ([1]; solvent EtOAc (entry -08)): New peaks + free base | XRPD post 1 day maturation ([1]; solvent Ethanol (entry -02)): New peaks + free base (loss of crystallinity) | XRPD post 4 days maturation ([1]; solvent Ethanol (entry -02)): Amorphous | XRPD post 1 day maturation ([1]; solvent IPA (entry -03)): New peaks + free base (loss of crystallinity) | XRPD post 4 days maturation ([1]; solvent IPA (entry -03)): Amorphous | XRPD post 1 day maturation ([1]; solvent IPAc (entry -09)): New peaks + free base (loss of crystallinity) | XRPD post 4 days maturation ([1]; solvent IPAc (entry -09)): New peaks + free base | XRPD post 1 day maturation ([1]; solvent MEK (entry -06)): New peaks + free base | XRPD post 4 days maturation ([1]; solvent MEK (entry -06)): HCl Pattern 1 | XRPD post 1 day maturation ([1]; solvent MIBK (entry -07)): New peaks + free base | XRPD post 4 days maturation ([1]; solvent MIBK (entry -07)): New peaks + free base | XRPD post 1 day maturation ([1]; solvent MeNO2 (entry -14)): HCl Pattern I | XRPD post 1 day maturation ([1]; solvent Methanol (entry -01)): New peaks + free base (loss of crystallinity) | XRPD post 4 days maturation ([1]; solvent Methanol (entry -01)): Loss of crystallinity | XRPD post 1 day maturation ([1]; solvent TBME (entry -11)): New peaks + free base | XRPD post 4 days maturation ([1]; solvent TBME (entry -11)): New peaks + free base | XRPD post 1 day maturation ([1]; solvent THF (entry -12)): New peaks + free base (loss of crystallinity) | XRPD post 4 days maturation ([1]; solvent THF (entry -12)): HCl Pattern 1 | XRPD post 1 day maturation ([1]; solvent Toluene (entry -15)): New peaks + free base | XRPD post 4 days maturation ([1]; solvent Toluene (entry -15)): New peaks + free base | XRPD post 1 day maturation ([1]; solvent tBuOH (entry -18)): New peaks + free base | XRPD post 4 days maturation ([1]; solvent tBuOH (entry -18)): Free base

Nc1nc2cc(-c3ccc4ncc(C(=O)N5CCOCC5)n4c3)ccc2o1 [{drug5a}, (6-(2-aminobenzo[d]oxazol-5-yl)imidazo[1,2-a]pyridin-3-yl)(morpholino)methanone]
Ion Chromatography ([1]; HCl salt from nitromethane): 0.8 eqs Cl | XRPD (vacuum dried) ([1]; HCl salt from nitromethane): HCl Pattern 1 | Ion Chromatography ([1]; HCl salts from concentrated acids, first Details column (presumably Procedure A)): 1.6 eqs Cl | Ion Chromatography ([1]; HCl salts from concentrated acids, second Details column (presumably Procedure B)): 1.7 eqs Cl | XRPD (air dried) ([1]; salts from concentrated acids, first Details column (presumably Procedure A), listed as HCl salt): HCl Pattern 2 | XRPD (air dried) [1, 7]: HCl Pattern 2 | XRPD (vacuum dried) [1, 7]: HCl Pattern 2; also recorded: Slight changes, more peaks

Nc1nc2cc(-c3ccc4ncc(C(=O)N5CCOCC5)n4c3)ccc2o1 [{drug5b}, (6-(2-aminobenzo[d]oxazol-5-yl)imidazo[1,2-a]pyridin-3-yl)(morpholino)methanone]
Ion Chromatography ([1]; HBr salt from aqueous screen): 0.8 eqs Cl | XRPD (vacuum dried) ([1]; HBr salt from aqueous screen): HBr Pattern 3 | Ion Chromatography [1, 8]: 1.1 eqs C 1 | XRPD (vacuum dried) [1, 8]: HBr Pattern 1, slight evidence of FB | XRPD (vacuum dried) ([1]; HBr salt obtained in the salt screen, Nitromethane): HBr Pattern 1, slight evidence of FB | Ion Chromatography [1, 9]: 0.8 eqs Cl | XRPD (vacuum dried) [1, 9]: HBr Pattern 1 | Ion Chromatography ([1]; HBr salts from concentrated acids, first Details column (presumably Procedure A)): 1.7 eqs Br | Ion Chromatography ([1]; HBr salts from concentrated acids, second Details column (presumably Procedure B)): 1.8 eqs Br | XRPD (air dried) ([1]; salts from concentrated acids, first Details column (presumably Procedure A), listed as HBr salt): HBr Pattern 2 | XRPD (air dried) [1, 10]: HBr Pattern 4 | XRPD (vacuum dried) [1, 10]: HBr Pattern 4; also recorded: Slight changes, more peaks
